{
  "source": "PubChem BioAssay AID179",
  "about": "(DTP/NCI, 2004)",
  "test_system": "CEM cells HIV-1 protection, formazan growth assay",
  "test": "NCI AIDS Antiviral Assay",
  "conditions": "for pIC50: measured here: growth of uninfected CEM cells",
  "how_it_was_run": "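Screen of anti-HIV-1 activity in human CEM cells using a formazan-based growth measurement at five drug concentrations. Hits with 50% or greater protection were repeated, and confirmation required reproducible complete protection.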",
  "note": "pEC50, pIC50: −log10 of the molar value. Several values for one entry are separate records, joined by “and”; a condition that tells them apart may be missing. Identical values can stand only once. Activity calls are given as the source filed them.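 The calls were made as follows: active = compounds giving half or more protection of infected cells from virus-caused growth loss, again on retest; inactive = the rest.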",
  "data": [
    {"smiles": "CC=C=C(C)CN", "values": [
      {"measurement": "pEC50", "value": "< 3.35"},
      {"measurement": "pIC50", "value": "< 3.35"}
    ]},
    {"smiles": "CN(CC#N)C1CCC[C@]1(O)/C=C/[Si](C)(C)C", "note": "(some centres not stated)", "values": [
      {"measurement": "pEC50", "value": "< 3.99"},
      {"measurement": "pIC50", "value": "< 3.99"}
    ]},
    {"smiles": "N#CC(C#N)=C(C#N)C#N", "values": [
      {"measurement": "pEC50", "value": "< 3.70"},
      {"measurement": "pIC50", "value": "< 3.70"}
    ]},
    {"smiles": "Cc1c(C(=O)c2ccccc2)n(COCCC[Se]c2ccccc2)c(=O)[nH]c1=O", "values": [
      {"measurement": "pEC50", "value": "< 3.70"},
      {"measurement": "pIC50", "value": 4.74}
    ]},
    {"smiles": "c1ccc2c(c1)Nc1nc3ccccc3nc1N2", "values": [
      {"measurement": "pEC50", "value": "< 4.00"},
      {"measurement": "pIC50", "value": "< 4.00"}
    ]},
    {"smiles": "Cc1cc2c(=O)cc(-c3ccc(C(=O)O)cc3)oc2c(C(=O)O)c1C", "values": [
      {"measurement": "outcome", "value": "inactive"}
    ]},
    {"smiles": "CC(C)(C)c1cc(C(=O)/C=C/c2ccccc2)cc(C(C)(C)C)c1O", "values": [
      {"measurement": "pEC50", "value": "< 4.67"},
      {"measurement": "pIC50", "value": "< 4.67"}
    ]},
    {"smiles": "CC(C)(CN1CCCCC1)C(=O)/C=C/c1ccc(Cl)cc1", "values": [
      {"measurement": "pEC50", "value": "< 4.44"},
      {"measurement": "pIC50", "value": 5.10}
    ]},
    {"smiles": "O=C(CC(=O)c1ccccc1)CC(O)(c1ccccc1)c1ccccc1", "values": [
      {"measurement": "pEC50", "value": "< 4.96"},
      {"measurement": "pIC50", "value": "< 4.96"}
    ]},
    {"smiles": "COC1/C=C/OC2(C)Oc3c(C)c(O)c4c(O)c(c(C=Nc5cccc(C)c5)c(O)c4c3C2=O)NC(=O)C(C)=C/C=C/C(C)C(O)C(C)C(O)C(C)C(OC(C)=O)C1C", "note": "(configuration not stated)", "values": [
      {"measurement": "pEC50", "value": "< 3.76"},
      {"measurement": "pIC50", "value": 4.54}
    ]},
    {"smiles": "COC1=CC(=O)C=C(CO)C1=O", "values": [
      {"measurement": "pEC50", "value": "< 3.25"},
      {"measurement": "pIC50", "value": 5.00}
    ]},
    {"smiles": "COc1cc(OCc2ccc3nc(-c4ccccc4)c(Cl)nc3c2)cc(OC)c1OC", "values": [
      {"measurement": "pEC50", "value": "< 3.70"},
      {"measurement": "pIC50", "value": "< 3.70"}
    ]},
    {"smiles": "CC(=O)N(C)c1ccc2c(ccc[n+]2[O-])c1[N+](=O)[O-]", "values": [
      {"measurement": "pEC50", "value": "< 3.02"},
      {"measurement": "pIC50", "value": "< 3.02"}
    ]},
    {"smiles": "NC(=O)C(=Cn1c(=S)[nH]c2ccc([N+](=O)[O-])cc21)C(N)=O", "values": [
      {"measurement": "pEC50", "value": "< 3.70"},
      {"measurement": "pIC50", "value": "< 3.70"}
    ]},
    {"smiles": "Cc1ccc(S(=O)(=O)NCCSSCCNS(=O)(=O)c2ccc(C)cc2)cc1", "values": [
      {"measurement": "pEC50", "value": "< 3.70"},
      {"measurement": "pIC50", "value": "4.71 and 4.57"}
    ]},
    {"smiles": "ClC1c2ccccc2-c2nsnc2C1Cl", "note": "(configuration not stated)", "values": [
      {"measurement": "pEC50", "value": "< 4.55"},
      {"measurement": "pIC50", "value": "< 4.55"}
    ]},
    {"smiles": "CCN(/C=C1/C(=O)C(c2ccccc2)N(c2ccccc2)C1=O)CC", "note": "(configuration not stated)", "values": [
      {"measurement": "pEC50", "value": "< 3.70"},
      {"measurement": "pIC50", "value": "< 3.70"}
    ]},
    {"smiles": "CC(=O)C1=C(O)CC2CC3c4[nH]c5ccccc5c4CCN3CC2C1", "note": "(configuration not stated)", "values": [
      {"measurement": "pEC50", "value": "< 3.69"},
      {"measurement": "pIC50", "value": 3.99}
    ]},
    {"smiles": "COC(=O)/C=C\\C1C(C(=O)OC)C2(C(=O)OC)CCC1(C(=O)OC)N2", "note": "(configuration not stated)", "values": [
      {"measurement": "outcome", "value": "inactive"}
    ]},
    {"smiles": "CCCCN(S(=O)(=O)c1ccccc1)S(=O)(=O)c1ccccc1", "values": [
      {"measurement": "pEC50", "value": "< 3.70"},
      {"measurement": "pIC50", "value": "< 3.70"}
    ]},
    {"smiles": "ClCCC1OC(CCCl)OC(CCCl)O1", "note": "(configuration not stated)", "values": [
      {"measurement": "pEC50", "value": "< 3.70"},
      {"measurement": "pIC50", "value": "< 3.70"}
    ]},
    {"smiles": "Cc1ccc(NC(=O)CSc2nnc(Cc3ccccc3)o2)cc1", "values": [
      {"measurement": "pEC50", "value": "< 4.26"},
      {"measurement": "pIC50", "value": "< 4.26"}
    ]},
    {"smiles": "O=CN(SSN(C=O)C1CCCCC1)C1CCCCC1", "values": [
      {"measurement": "outcome", "value": "inactive"}
    ]},
    {"smiles": "O=C(N/C(=C\\c1ccccc1O)C1NC(Cc2c[nH]c3ccccc23)C(=O)O1)c1ccccc1", "note": "(configuration not stated)", "values": [
      {"measurement": "pEC50", "value": "< 4.00"},
      {"measurement": "pIC50", "value": 4.13}
    ]},
    {"smiles": "c1ccc(-c2csc3[nH]c4ccccc4[n+]23)cc1", "values": [
      {"measurement": "outcome", "value": "inactive"}
    ]},
    {"smiles": "COc1cc2c(cc1O)CN1Cc3c(ccc(OC)c3O)C2C1", "note": "(configuration not stated)", "values": [
      {"measurement": "pEC50", "value": "< 3.55"},
      {"measurement": "pIC50", "value": 3.60}
    ]},
    {"smiles": "[C-]#[O+].[C-]#[O+].[C-]#[O+].[Cr].c1ccc([PH+](CC[As](c2ccccc2)c2ccccc2)CC[As](c2ccccc2)c2ccccc2)cc1", "values": [
      {"measurement": "outcome", "value": "inactive"}
    ]},
    {"smiles": "CC(=O)OCC1OC(n2c(C)c(C(C)=O)c(-c3cccc4ccccc34)c(C#N)c2=S)C(OC(C)=O)C(OC(C)=O)C1OC(C)=O", "note": "(configuration not stated)", "values": [
      {"measurement": "pEC50", "value": "< 3.70"},
      {"measurement": "pIC50", "value": 3.95}
    ]},
    {"smiles": "O=[N+]([O-])C1C2C=CC(C2)[C@H]1c1ccc(Cl)cc1Cl", "note": "(some centres not stated)", "values": [
      {"measurement": "outcome", "value": "inactive"}
    ]},
    {"smiles": "C=C(CN(C)C)C(=O)c1ccc(Oc2ccccc2)cc1", "values": [
      {"measurement": "pEC50", "value": "< 3.70"},
      {"measurement": "pIC50", "value": 5.46}
    ]},
    {"smiles": "O=C1CC2C(=O)N(Cc3ccccc3)C1C=C2S(=O)(=O)c1ccccc1", "note": "(configuration not stated)", "values": [
      {"measurement": "outcome", "value": "inactive"}
    ]},
    {"smiles": "O=C1NS(=O)(=O)c2ccccc21.[Cu+2]", "values": [
      {"measurement": "pEC50", "value": "< 2.94"},
      {"measurement": "pIC50", "value": 4.23}
    ]},
    {"smiles": "Nc1c(Br)cc2c([nH]c(=O)c3cc(Br)ccc32)c1Br", "values": [
      {"measurement": "pEC50", "value": "< 3.70"},
      {"measurement": "pIC50", "value": 4.41}
    ]},
    {"smiles": "O=C1/C(=C/c2ccccc2)CN(C(=O)/C=C/c2ccccc2)C/C1=C\\c1ccccc1", "values": [
      {"measurement": "pEC50", "value": "< 4.00"},
      {"measurement": "pIC50", "value": 4.84}
    ]},
    {"smiles": "NC(=O)CCN(CCC(N)=O)CCC(N)=O", "values": [
      {"measurement": "pEC50", "value": "< 3.70"},
      {"measurement": "pIC50", "value": "< 3.70"}
    ]},
    {"smiles": "CN1C(=O)C(O)(Cc2nccc3ccccc23)c2ccccc21", "note": "(configuration not stated)", "values": [
      {"measurement": "pEC50", "value": "< 3.70"},
      {"measurement": "pIC50", "value": 4.44}
    ]},
    {"smiles": "O=c1cc2ccccc2nn1-c1ccccc1Cl", "values": [
      {"measurement": "pEC50", "value": "< 3.58"},
      {"measurement": "pIC50", "value": 3.96}
    ]}
  ]
}
